Assay results as given in patent US20050112701A1, “Test system for the identification of APJ receptor ligands” (Aventis Pharma Deutschland GmbH, priority 2003, published 2005).
Ends that are not written are not given here.

What was measured:
Assay type in all cases: cell-based
APJ receptor [1] = biological target: T1, APJ receptor (Homo sapiens, UniProt P35414); test: FLIPR calcium assay in CHO cells transiently cotransfected with APJ receptor and G protein α subunits (FIG. 3); design: expressed in transfected cells; host or cells: CHO (Chinese hamster ovary), transient; conditions: 1 μmol/l peptide; CHO cells cotransfected with APJ and α16 or αΔ6qi4myr; response required chimeric/promiscuous Gα subunit
T1 sequence (P35414 1-380): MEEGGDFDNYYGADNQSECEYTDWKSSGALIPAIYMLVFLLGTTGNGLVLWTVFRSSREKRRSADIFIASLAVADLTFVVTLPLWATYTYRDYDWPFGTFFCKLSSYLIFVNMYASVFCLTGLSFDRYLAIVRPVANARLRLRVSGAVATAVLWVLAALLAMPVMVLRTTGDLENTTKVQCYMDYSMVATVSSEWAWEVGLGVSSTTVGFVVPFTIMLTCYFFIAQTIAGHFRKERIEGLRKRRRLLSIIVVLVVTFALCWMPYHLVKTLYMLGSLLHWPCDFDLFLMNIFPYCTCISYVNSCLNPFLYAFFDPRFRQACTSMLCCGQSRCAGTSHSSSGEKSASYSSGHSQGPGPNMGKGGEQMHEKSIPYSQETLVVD
From the text: The APJ receptor was transiently cotransfected in CHO cells (Chinese hamster ovary cells) with vector DNA as a control (white column) or the G protein α subunits α16 (black column) and αΔ6qi4myr (striped column) according to methods known to the one skilled in the art. […] Data presented are mean values (fluorescence intensity units, FIU) from 2 individual experiments performed in duplicate.
(§1) The FLIPR calcium assay provides a suitable method for detecting changes in intracellular calcium concentration. It is a fluorescence-based assay which was performed according to the manufacture's instructions (Molecular Devices, CA, USA). Briefly summarized, cells were seeded on 96- or 384-well plates Loading Buffer was added to the cells and plates incubated for 1 hour at 37° C. After incubation cells were stimulated with the prevailing APJ receptor ligand or none. Thereafter intracellular calcium concentration was measured in the FLIPR according to the FLIPR system manual.

APJ receptor [2] = biological target: T1, APJ receptor; test: FLIPR calcium assay, EC50 of apelin peptides in HEK293-PSCi4qi4-APJ cells; design: expressed in transfected cells; host or cells: HEK293-PSCi4qi4 (HEK 293 stably expressing Gαi4qi4); conditions: intracellular calcium
Protocol: as §1

APJ receptor [3] = biological target: T1, APJ receptor; test: FLIPR calcium assay in stably transfected HEK 293 cells overexpressing G protein and APJ receptor (FIG. 4); design: expressed in transfected cells; host or cells: HEK 293; conditions: 50 nmol/l, 200 nmol/l, 1 μmol/l; HEK 293 stably cotransfected with G protein and APJ; response required APJ receptor
Protocol: Data presented are mean values (fluorescence intensity units, FIU) from 2 individual experiments performed in duplicate.
as §1

Row | intracellular calcium release via the APJ receptor (APJ receptor [1]) | EC50 (APJ receptor [2]; first of two independent measurements) | EC50 (APJ receptor [2]; second of two independent measurements) | Compound | intracellular calcium release via the APJ receptor (APJ receptor [3])
1 | induced intracellular calcium release | – | – | CSCC[C@H](NC(=O)[C@@H]1CCCN1C(=O)CNC(=O)[C@H](CCCCN)NC(=O)[C@H](Cc1c[nH]cn1)NC(=O)[C@H](CO)NC(=O)[C@H](CC(C)C)NC(=O)[C@H](CCCNC(=N)N)NC(=O)[C@@H]1CCCN1C(=O)[C@@H](N)CCCNC(=N)N)C(=O)N1CCC[C@H]1C(=O)N[C@@H](Cc1ccccc1)C(=O)O [Apelin-12] | –
2 | induced intracellular calcium release | 51 nM | 27 nM | LVQPRGSRNGPGPWQGGRRKFRRQRPRLSHKGPMPF [Apelin-36] | induced intracellular calcium release via the APJ receptor in a dose-dependent manner
